Results on 22 compounds are retold here after patent US7566712B2, “Biaryl piperazinyl-pyridine analogues” (Neurogen Corporation, priority 2003, dated 2009).

pIC50: −log10 of the molar value.

The target in the first assay is T1, human capsaicin receptor (Homo sapiens, UniProt Q8NER1).
T1 construct: pBK-CMV expression construct encoding the full length human capsaicin receptor; expressed in transfected cells
T1 sequence (Q8NER1 whole entry): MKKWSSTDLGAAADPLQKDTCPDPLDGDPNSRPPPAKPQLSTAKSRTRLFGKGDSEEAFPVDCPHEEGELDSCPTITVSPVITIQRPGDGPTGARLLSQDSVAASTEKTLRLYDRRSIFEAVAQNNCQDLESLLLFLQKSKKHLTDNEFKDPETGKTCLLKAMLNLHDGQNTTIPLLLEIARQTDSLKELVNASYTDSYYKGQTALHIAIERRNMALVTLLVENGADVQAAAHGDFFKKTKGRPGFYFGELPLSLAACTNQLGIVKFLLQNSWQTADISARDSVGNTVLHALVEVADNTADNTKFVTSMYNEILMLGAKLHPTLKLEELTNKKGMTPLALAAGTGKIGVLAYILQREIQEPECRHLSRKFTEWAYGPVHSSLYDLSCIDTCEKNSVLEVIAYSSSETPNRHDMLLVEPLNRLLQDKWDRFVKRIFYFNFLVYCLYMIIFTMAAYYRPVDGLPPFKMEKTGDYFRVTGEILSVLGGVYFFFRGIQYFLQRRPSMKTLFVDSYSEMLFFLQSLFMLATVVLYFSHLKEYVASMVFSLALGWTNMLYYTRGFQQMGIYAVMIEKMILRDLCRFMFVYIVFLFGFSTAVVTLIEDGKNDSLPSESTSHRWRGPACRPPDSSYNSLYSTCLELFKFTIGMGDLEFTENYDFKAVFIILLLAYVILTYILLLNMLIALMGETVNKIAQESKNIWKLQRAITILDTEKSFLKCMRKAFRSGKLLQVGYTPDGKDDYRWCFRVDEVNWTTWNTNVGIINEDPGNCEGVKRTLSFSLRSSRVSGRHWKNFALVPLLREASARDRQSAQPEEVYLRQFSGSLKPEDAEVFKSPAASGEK
Description: Calcium mobilization assay, determination of antagonist activity (Example 6). Type of assay: cell-based. Particulars: Table II; IC50 determined as described in Example 6. A digest of the protocol:
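Antagonism measured as inhibition of capsaicin-evoked (final concentration = EC50, from an 8-point 1 nM–3 μM curve) Fluo-3 calcium signal in stable hVR1-HEK293 cells. Test compounds at 1–5 μM final, 0.5–6 h dark preincubation at room temperature. IC50 = concentration giving 50% reduction versus agonist-only response.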
On the technique in general: Calcium flux is commonly read through the fluorescence of an indicator in the cells.
Broadly, the pIC50 is the IC50 on a negative log10 scale, so that one unit is a factor of ten. Turning to `C=CCN1CCN(c2nc(-c3ccc(Cl)cc3)nc(N3CCN(c4ncccc4C(F)(F)F)CC3)n2)CC1` [Example 445, 2-(4-allylpiperazin-1-yl)-4-(4-chlorophenyl)-6-{4-[3-(trifluoromethyl)pyridin-2-yl]piperazin-1-yl}-1,3,5-triazine], the pIC50 is at least 6.00.
Same read-out and setting: under `Cc1ccc(-c2cc(N3CCN(c4ncccc4C#N)C[C@H]3C)nc(N3CCOCC3)n2)cc1F` [Example 493, 2-{(3R)-4-[6-(3-fluoro-4-methylphenyl)-2-morpholin-4-ylpyrimidin-4-yl]-3-methylpiperazin-1-yl}nicotinonitrile] stands at least 6.00; under `Cc1cc(-c2cc(N3CCN(c4ncccc4Cl)C[C@H]3C)nc(N3CCOCC3)n2)ccc1F` [Example 498, 4-[4-[(2R)-4-(3-chloropyridin-2-yl)-2-methylpiperazin-1-yl]-6-(4-fluoro-3-methytphenyl)pyrimidin-2-yl]morpholine], at least 6.00.

Staying with this assay, now noted: Table II; determined as described in Example 6 (antagonist activity); "*" = 1 micromolar or less.
On to `CC1CCCN1c1nc(-c2ccc(F)c(F)c2)cc(N2CCN(c3ncccc3F)C[C@H]2C)n1` (stereo partly shown) [Example 895, 4-(3,4-difluorophenyl)-6-[4-(3-fluoropyridin-2-yl)-2-methylpiperazin-1-yl]-2-(2-methylpyrrolidin-1-yl)pyrimidine], for which the pIC50 is at least 6.00.
On to `Cc1cc(-c2cc(N3CCN(c4ncccc4Cl)C[C@@H]3C)nc(N3CCCC3C)n2)ccc1F` (stereo in doubt) [Example 903, 4-[4-(3-chloropyridin-2-yl)-2-methylpiperazin-1-yl]-6-(4-fluoro-3-methylphenyl)-2-(2-methylpyrrolidin-1-yl)pyrimidine], for which the pIC50 was at least 6.00.
Turning to `C[C@@H]1CCCN1c1nc(-c2ccc(F)c(Cl)c2)cc(N2CCN(c3ncccc3Cl)C[C@@H]2C)n1` [Example 945, 4-(3-chloro-4-fluorophenyl)-6-[(2S)-4-(3-chloropyridin-2-yl)-2-methylpiperazin-1-yl]-2-[(2R)-2-methylpyrrolidin-1-yl]pyrimidine], the pIC50 is at least 6.00.
With `C[C@@H]1CN(c2ncccc2C(F)(F)F)CCN1c1cc(-c2ccc(F)c(F)c2)nc(N2CCC[C@H]2C)n1` [Example 936, 4-(3,4-difluorophenyl)-2-[(2R)-2-methylpyrrolidin-1-yl]-6-{(2R)-2-methyl-4-[3-(trifluoromethyl)pyridin-2-yl]piperazin-1-yl}pyrimidine], the pIC50 is at least 6.00.
Turning to `CCOC(=O)C1CCCN(c2nc(-c3ccc(F)c(Cl)c3)cc(N3CCN(c4ncccc4C(F)(F)F)CC3)n2)C1` (stereo not shown) [Example 798, ethyl 1-(4-(3-chloro-4-fluorophenyl)-6-{4-[3-(trifluoromethyl)pyridin-2-yl]piperazin-1-yl}pyrimidin-2-yl)piperidine-3-carboxylate], the pIC50 was at least 6.00.
Still for that read-out and setting: under `FC(F)(F)c1cccnc1N1CCN(c2cc(-c3cccc(Cl)c3)nc(N3CCN4CCC[C@H]4C3)n2)CC1` [Example 892, (8aS)-2-(4-(3-chlorophenyl)-6-{4-[3-(trifluoromethyl)pyridin-2-yl]piperazin-1-yl}pyrimidin-2-yl)octahydropyrrolo[1,2-a]pyrazine] stands at least 6.00.
Turning to `OCCCc1cccc(-c2cc(N3CCN(c4ncccc4C(F)(F)F)CC3)nc(N3CCOCC3)n2)c1` [Example 850, 3-[3-(2-morpholin-4-yl-6-{4-[3-(trifluoromethyl)pyridin-2-yl]piperazan-1-yl}pyrimidin-4-yl)phenyi]propan-1-ol], the pIC50 is at least 6.00.
`C[C@H]1CN(c2nccnc2Cl)CCN1c1cc(-c2ccc(F)c(F)c2)nc(N2CCCC2)n1` [Example 937, 4-[(2S)-4-(3-chloropyrazin-2-yl)-2-methylpiperazin-1-yl]-6-(3,4-difluorophenyl)-2-pyrrolidin-1-ylpyrimidine]: the pIC50 is at least 6.00.
On to `O=C(O)CCc1ccc(-c2cc(N3CCN(c4ncccc4C(F)(F)F)CC3)nc(N3CCOCC3)n2)cc1` [Example 849, 3-[4-(2-morpholin-4-yl-6-{4-[3-(trifluorormethyl)pyridin-2-yl]piperazin-1-yl}pyrimidin-4-yl)phenyl]propanoic acid], for which the pIC50 is at least 6.00.

Still in this assay, the particulars now being: determined as described in Example 6 (calcium mobilization, antagonist activity); Table II.
For `Nc1cccc(-c2cc(N3CCN(c4ncccc4C(F)(F)F)CC3)nc(N3CCOCC3)n2)c1` [Example 589, 3-(2-morpholin-4-yl-6-{4-[3-(trifluoromethyl)pyridin-2-yl]piperazin-1-yl}pyrimidin-4-yl)phenylamine], the pIC50 is at least 6.00.
Same read-out and setting: under `Cc1cc(-c2cc(N3CCN(c4ncccc4Cl)C[C@H]3C)nc(N3CCCC3)n2)ccc1F` [Example 718, 4-[(2R)-4-(3-chloropyridin-2-yl)-2-methylpiperazin-1-yl]-6-(4-fluoro-3-methylphenyl)-2-pyrrolidin-1-ylpyrimidine] stands at least 6.00; under `COC[C@@H]1CCCN1c1nc(-c2ccc(F)c(C)c2)cc(N2CCN(c3ncccc3Cl)C[C@H]2C)n1` [Example 729, 4-[(2R)-4-(3-chloropyridin-2-yl)-2-methylpiperazin-1-yl]-6-(4-fluoro-3-methylphenyl)-2-[(2S)-2-(methoxymethyl)pyrrolidin-1-yl]pyrimidine], at least 6.00.
On the same count and under the same terms, the value for `Cc1cccc(-c2cc(N3CCN(c4ncccc4C(F)(F)F)CC3)nc(N3CCCC3C)n2)c1` (stereo not shown) [Example 706, 4-(3-methylphenyl)-2-(2-methylpyrrolidin-1-yl)-6-{4-[3-(trifluoromethyl)pyridin-2-yl]piperazin-1-yl}pyrimidine] was at least 6.00.
On the same count and under the same terms, the value for `CCN(CC)c1nc(-c2cc(C)nc(C)c2)cc(N2CCN(c3ncccc3C(F)(F)F)CC2)n1` [Example 591, 4-(2,6-dimethylpyridin-4-yl)-N,N-diethyl-6-{4-[3-(trifluoromethyl)pyridin-2-yl]piperazin-1-yl}pyrimidin-2-amine] was at least 6.00; that for `CC1CCCN1c1nc(-c2ccc(F)c(Cl)c2)cc(N2CCN(c3ncccc3C(F)(F)F)C[C@H]2C)n1` (stereo partly drawn) [Example 764, 4-(3-chloro-4-fluorophenyl)-2-(2-methylpyrrolidin-1-yl)-6-{(2R)-2-methyl-4-[3-(trifluoromethyl)pyridin-2-yl]piperazin-1-yl}pyrimidine] was at least 6.00; that for `CCN1CCN(c2nc(-c3ccc(F)c(Cl)c3)cc(N3CCN(c4ncccc4C(F)(F)F)CC3)n2)CC1` [Example 623, 4-(3-chloro-4-fluorophenyl)-2-(4-ethylpiperazin-1-yl)-6-{4-[3-(trifluoromethyl)pyridin-2-yl]piperazin-1-yl}pyrimidine] was at least 6.00.
On to `CC1CCCN1c1nc(-c2ccc(F)c(Cl)c2)cc(N2CCN(c3ncccc3F)CC2)n1` (stereo not shown) [Example 707, 4-(3-chloro-4-fluorophenyl)-6-(4-(3-fluoropyridin-2-yl)piperazin-1-yl]-2-(2-methylpyrrolidin-1-yl)pyrimidine], for which the pIC50 is at least 6.00.
Still for that read-out and setting: under `CCC(CC)Oc1nc(-c2ccc(F)c(Cl)c2)cc(N2CCN(c3ncccc3C(F)(F)F)CC2)n1` [Example 658, 4-(3-chloro-4-fluorophenyl)-2-(1-ethylpropoxy)-6-{4-[3-(trifluoromethyl)pyridin-2-yl]piperazin-1-yl}pyrimidine] stands at least 6.00; under `CCN(CC)c1nc(-c2ccc(F)c(Cl)c2)cc(N2CCN(c3ncccc3Cl)CC2)n1` [Example 724, 4-(3-chloro-4-fluorophenyl)-6-[4-(3-chloropyridin-2-yl)piperazin-1-yl]-N,N-diethylpyrimidin-2-amine], at least 6.00.
